{
  "source": "patent US12687554B2",
  "about": "“Molecular profiling of tumors” (Caris MPI, Inc., priority 2006, dated 2026)",
  "origin": "cited, not measured here",
  "test_system": "differentially expressed or mutated biomarker in cancer cells",
  "key": {"[1]": {"details": "EGFR, FISH, Positive, with loss of PTEN, mutation of KRAS or BRAF per Summary"}, "[2]": {"details": "EGFR, Mutational Analysis, Mutated"}, "[3]": {"details": "EGFR, Mutational Analysis, Wild type genotype"}, "[4]": {"details": "PTEN, IHC, Above Threshold, with the other biomarker results named in the Summary"}, "[5]": {"details": "biomarker PTEN, IHC, result Above Threshold, with the other biomarker results named in the Summary"}, "[6]": {"details": "biomarker PTEN, IHC, result Negative (loss of PTEN protein expression)"}, "[7]": {"details": "KRAS, Mutational Analysis, Mutated"}, "[8]": {"details": "KRAS, Mutational Analysis, Wild type genotype"}, "[9]": {"details": "KRAS, Mutational Analysis, Wild type genotype, with loss of PTEN and/or FISH negative EGFR per Summary"}, "[10]": {"details": "biomarker EGFR, FISH, result Negative (lack of EGFR gene copy number increase)"}, "[11]": {"details": "biomarker EGFR, FISH, result Positive (high EGFR gene copy number)"}, "[12]": {"details": "biomarker EGFR, FISH, result Positive, with the other biomarker results named in the Summary"}, "[13]": {"details": "biomarker EGFR, Mutational Analysis, result Mutated"}, "[14]": {"details": "biomarker EGFR, Mutational Analysis, result Mutated, with the other biomarker results named in the Summary"}, "[15]": {"details": "biomarker EGFR, Mutational Analysis, result Wild type genotype"}, "[16]": {"details": "biomarker KRAS, Mutational Analysis, result Mutated"}, "[17]": {"details": "biomarker KRAS, Mutational Analysis, result Wild type genotype"}, "[18]": {"details": "biomarker KRAS, Mutational Analysis, result Wild type genotype, with the other biomarker results named in the Summary"}},
  "note": "Entries after “also recorded” stand apart in the source; their conditions may differ. Like-named read-outs stand apart in the source and are kept apart here.",
  "data": [
    {"compound": "CC(=O)Oc1ccccc1C(=O)O", "note": "[asprin]", "values": [
      {"measurement": "Recommended Agents", "setting": "COX-2, Microarray, Overexpressed", "value": "asprin"}
    ]},
    {"compound": "COc1cc2ncnc(Nc3ccc(F)c(Cl)c3)c2cc1OCCCN1CCOCC1", "note": "[Gefitinib]", "values": [
      {"measurement": "Resistant Agents", "setting": "EGFR, FISH, Negative", "value": "Gefitinib"},
      {"measurement": "Resistant Agents", "setting": "[1]", "value": "Gefitinib"},
      {"measurement": "Recommended Agents", "setting": "[2]", "value": "Gefitinib"},
      {"measurement": "Resistant Agents", "setting": "[3]", "value": "Gefitinib"},
      {"measurement": "Recommended Agents", "setting": "[4]", "value": "Gefitinib; also recorded: Gefitinib,"},
      {"measurement": "Resistant Agents", "setting": "[4]", "value": "Gefitinib"},
      {"measurement": "Resistant Agents", "setting": "[5]", "value": "Gefitinib"},
      {"measurement": "Resistant Agents", "setting": "[6]", "value": "Gefitinib,; also recorded: Gefitinib"}
    ]},
    {"compound": "Panitumumab", "values": [
      {"measurement": "Resistant Agents", "setting": "[1]", "value": "Panitumumab,"},
      {"measurement": "Recommended Agents", "setting": "[4]", "value": "Panitumumab,"},
      {"measurement": "Resistant Agents", "setting": "[5]", "value": "Panitumumab,"},
      {"measurement": "Resistant Agents", "setting": "[6]", "value": "Panitumumab,"}
    ]},
    {"compound": "C#Cc1cccc(Nc2ncnc3cc(OCCOC)c(OCCOC)cc23)c1", "note": "[Erlotinib]", "values": [
      {"measurement": "Resistant Agents", "setting": "EGFR, FISH, Negative", "value": "Erlotinib"},
      {"measurement": "Resistant Agents", "setting": "[1]", "value": "Erlotinib"},
      {"measurement": "Recommended Agents", "setting": "[2]", "value": "Erlotinib"},
      {"measurement": "Resistant Agents", "setting": "[3]", "value": "Erlotinib"},
      {"measurement": "Recommended Agents", "setting": "[4]", "value": "Erlotinib; also recorded: Erlotinib,"},
      {"measurement": "Resistant Agents", "setting": "PTEN, IHC, Negative", "value": "Erlotinib,"},
      {"measurement": "Resistant Agents", "setting": "[5]", "value": "Erlotinib"},
      {"measurement": "Resistant Agents", "setting": "[6]", "value": "Erlotinib,; also recorded: Erlotinib"}
    ]},
    {"compound": "CS(=O)(=O)CCNCc1ccc(-c2ccc3ncnc(Nc4ccc(OCc5cccc(F)c5)c(Cl)c4)c3c2)o1", "note": "[lapatinib]", "values": [
      {"measurement": "Recommended Agents", "setting": "Her2/Neu, FISH, Amplified", "value": "lapatinib"},
      {"measurement": "Resistant Agents", "setting": "Her2/Neu, FISH, Not Amplified", "value": "lapatinib"},
      {"measurement": "Recommended Agents", "setting": "Her2/Neu, IHC, Above Threshold", "value": "lapatinib"},
      {"measurement": "Resistant Agents", "setting": "Her2/Neu, IHC, Negative", "value": "lapatinib"},
      {"measurement": "Resistant Agents", "setting": "[4]", "value": "lapatinib"},
      {"measurement": "Resistant Agents", "setting": "PTEN, IHC, Negative", "value": "lapatinib"}
    ]},
    {"compound": "CC1=C(/C=C/C(C)=C/C=C/C(C)=C/C(=O)O)C(C)(C)CCC1", "note": "[ATRA]", "values": [
      {"measurement": "Recommended Agents", "setting": "RARA, Microarray, Overexpressed, for use only on hematologic malignancies", "value": "ATRA"}
    ]},
    {"compound": "COc1cc2ncnc(Nc3ccc(F)c(Cl)c3)c2cc1OCCCN1CCOCC1", "note": "[gefitinib]", "values": [
      {"measurement": "Recommended Agents", "setting": "EGFR, FISH, Positive", "value": "gefitinib"},
      {"measurement": "Resistant Agents", "setting": "[1]", "value": "gefitinib"},
      {"measurement": "Resistant Agents", "setting": "[7]", "value": "gefitinib"},
      {"measurement": "Recommended Agents", "setting": "[8]", "value": "gefitinib"},
      {"measurement": "Resistant Agents", "setting": "[9]", "value": "gefitinib"},
      {"measurement": "Recommended Agents", "setting": "[4]", "value": "gefitinib"},
      {"measurement": "Resistant Agents", "setting": "[4]", "value": "gefitinib"},
      {"measurement": "Resistant Agents", "setting": "PTEN, IHC, Negative", "value": "gefitinib"},
      {"measurement": "Resistant Agents", "setting": "[10]", "value": "gefitinib"},
      {"measurement": "Recommended Agents", "setting": "[11]", "value": "gefitinib"},
      {"measurement": "Resistant Agents", "setting": "[12]", "value": "gefitinib"},
      {"measurement": "Recommended Agents", "setting": "[13]", "value": "gefitinib"},
      {"measurement": "Resistant Agents", "setting": "[14]", "value": "gefitinib"},
      {"measurement": "Resistant Agents", "setting": "[15]", "value": "gefitinib"},
      {"measurement": "Resistant Agents", "setting": "[16]", "value": "gefitinib"},
      {"measurement": "Recommended Agents", "setting": "[17]", "value": "gefitinib"},
      {"measurement": "Resistant Agents", "setting": "[18]", "value": "gefitinib"},
      {"measurement": "Recommended Agents", "setting": "biomarker PTEN, IHC, result Above Threshold", "value": "gefitinib"},
      {"measurement": "Resistant Agents", "setting": "[5]", "value": "gefitinib"}
    ]},
    {"compound": "Cc1ccc(NC(=O)c2ccc(CN3CCN(C)CC3)cc2)cc1Nc1nccc(-c2cccnc2)n1", "note": "[imatinib]", "values": [
      {"measurement": "Recommended Agents", "setting": "c-kit, Mutational Analysis, Mutated, mutations in exon 9", "value": "imatinib"},
      {"measurement": "Resistant Agents", "setting": "c-kit, Mutational Analysis, Mutated, mutations in exon 11", "value": "imatinib"},
      {"measurement": "Recommended Agents", "setting": "c-kit, Mutational Analysis, Wild type genotype", "value": "imatinib"}
    ]},
    {"compound": "CC(=O)Oc1ccccc1C(=O)O", "note": "[aspirin]", "values": [
      {"measurement": "Recommended Agents", "setting": "COX-2, IHC, Above Threshold", "value": "aspirin"},
      {"measurement": "Resistant Agents", "setting": "COX-2, IHC, Negative", "value": "aspirin"}
    ]},
    {"compound": "C#Cc1cccc(Nc2ncnc3cc(OCCOC)c(OCCOC)cc23)c1", "note": "[erlotinib]", "values": [
      {"measurement": "Resistant Agents", "setting": "EGFR, FISH, Negative", "value": "erlotinib"},
      {"measurement": "Recommended Agents", "setting": "EGFR, FISH, Positive", "value": "erlotinib"},
      {"measurement": "Resistant Agents", "setting": "[1]", "value": "erlotinib"},
      {"measurement": "Resistant Agents", "setting": "[7]", "value": "erlotinib"},
      {"measurement": "Recommended Agents", "setting": "[8]", "value": "erlotinib"},
      {"measurement": "Resistant Agents", "setting": "[9]", "value": "erlotinib"},
      {"measurement": "Recommended Agents", "setting": "[4]", "value": "erlotinib"},
      {"measurement": "Resistant Agents", "setting": "[4]", "value": "erlotinib"},
      {"measurement": "Resistant Agents", "setting": "PTEN, IHC, Negative", "value": "erlotinib"},
      {"measurement": "Resistant Agents", "setting": "[10]", "value": "erlotinib"},
      {"measurement": "Recommended Agents", "setting": "[11]", "value": "erlotinib"},
      {"measurement": "Resistant Agents", "setting": "[12]", "value": "erlotinib"},
      {"measurement": "Recommended Agents", "setting": "[13]", "value": "erlotinib"},
      {"measurement": "Resistant Agents", "setting": "[14]", "value": "erlotinib"},
      {"measurement": "Resistant Agents", "setting": "[15]", "value": "erlotinib"},
      {"measurement": "Recommended Agents", "setting": "[17]", "value": "erlotinib"},
      {"measurement": "Resistant Agents", "setting": "[18]", "value": "erlotinib"},
      {"measurement": "Resistant Agents", "setting": "[5]", "value": "erlotinib"},
      {"measurement": "Resistant Agents", "setting": "[6]", "value": "erlotinib,"}
    ]},
    {"compound": "panitumumab", "values": [
      {"measurement": "Resistant Agents", "setting": "BRAF, Mutational Analysis, Mutated", "value": "panitumumab"},
      {"measurement": "Recommended Agents", "setting": "BRAF, Mutational Analysis, Wild type genotype", "value": "panitumumab"},
      {"measurement": "Resistant Agents", "setting": "BRAF, Mutational Analysis, Wild type genotype, with loss of PTEN and/or FISH negative EGFR per Summary", "value": "panitumumab"},
      {"measurement": "Resistant Agents", "setting": "[1]", "value": "panitumumab,"},
      {"measurement": "Resistant Agents", "setting": "[7]", "value": "panitumumab,"},
      {"measurement": "Recommended Agents", "setting": "[8]", "value": "panitumumab,"},
      {"measurement": "Resistant Agents", "setting": "[9]", "value": "panitumumab,"},
      {"measurement": "Recommended Agents", "setting": "[4]", "value": "panitumumab,; also recorded: panitumumab"},
      {"measurement": "Resistant Agents", "setting": "[4]", "value": "panitumumab,"},
      {"measurement": "Resistant Agents", "setting": "PTEN, IHC, Negative", "value": "panitumumab,"},
      {"measurement": "Resistant Agents", "setting": "biomarker BRAF, Mutational Analysis, result Mutated", "value": "panitumumab"},
      {"measurement": "Resistant Agents", "setting": "biomarker BRAF, Mutational Analysis, result Wild type genotype, with the other biomarker results named in the Summary", "value": "panitumumab"},
      {"measurement": "Resistant Agents", "setting": "[10]", "value": "panitumumab,"},
      {"measurement": "Resistant Agents", "setting": "[12]", "value": "panitumumab,"},
      {"measurement": "Resistant Agents", "setting": "[16]", "value": "panitumumab,"},
      {"measurement": "Resistant Agents", "setting": "[18]", "value": "panitumumab,"},
      {"measurement": "Resistant Agents", "setting": "[5]", "value": "panitumumab,"},
      {"measurement": "Resistant Agents", "setting": "[6]", "value": "panitumumab,"}
    ]}
  ]
}
